According to patent publication US20070213382A1, “2-METHYLTHIAZOLIDINE-2, 4-DICARBOXYLIC ACID-CONTAINING COMBINATION PREPARATIONS” (priority 2004, published 2007):
In brackets after ≈: the same amount, converted by molar mass. Read-outs that look alike come from different tables or passages of the source.

Experiments:
Neuroglioma cells H4 = experiment: in vitro cytotoxicity assay, crystal violet, 72 h (Example 1); format: cell-based; conditions: human gliomas cells H4, 72 h; for cytotoxic effect: N-acetylcysteine up to comparatively high concentrations
Method: (§1) Examinations for the in vitro cytoxicity of 2-methylthiazolidine-2,4-dicarboxylic acid and N-acetylcysteine in human tumor cell lines were carried out.
(§2) The cells were kept in culturing medium RPMI 1640 (Sigma, Munich) and in addition 10% FCS (Sigma, Munich) in 50 ml cell culture vials (Greiner) at 37° C. as well as under a 5% of CO2 atmosphere.
(§3) Monolayers of the tumor cells were prepared by dispersion of 2×10^6 tumor cells in 96-hole-plates (Greiner). After an incubation time of 24 hours the medium was replaced by a medium containing the test compounds. All assays were carried out four times.
(§4) After 72 h the quantity of living cells was determined by means of coloring with crystal violet.
(§5) For that purpose, the medium was removed from each hole in the plate, the plates were washed twice with PBS, the cells were fixed by means of PBS, containing 1% of paraformaldehyde and dried for 15 minutes at room temperature. Subsequently, the cells were rinsed with PBS and dried at room temperature.
(§6) Thereafter, the cells were colored with 1% crystal violet solution in water for two minutes, and after washing with water the optical density was determined by means of an ELISA spectrometer at 595 nm. The average values and standard deviations for the average values were determined for all four parallel tests.

[1] = test system: Bladder carcinoma cells EJ; experiment: as above; format: cell-based, human; conditions: for IC50: Homo sapiens
Method: as §1, §2, §3, §4, §5, §6

| SMILES | IC50 (Neuroglioma cells H4) | cytotoxic effect (Neuroglioma cells H4) | growth of the bladder carcinoma cell line EJ ([1]; substance alone) | IC50 ([1]; alone, read-out: IC50 value for temozolomide alone) | IC50 ([1]; in the presence of 200 μg/ml 2-methylthiazolidine-2,4-dicarboxylic acid, read-out: IC50 value of temozolomide in the presence of 2-methylthiazolidine-2,4-dicarboxylic acid) | IC50 ([1]; in the presence of 1000 μg/ml N-acetylcysteine, read-out: IC50 value of temozolomide in the presence of N-acetylcysteine) |
| --- | --- | --- | --- | --- | --- | --- |
| CC1(C(=O)O)NC(C(=O)O)CS1 (stereo not shown) [2-methylthiazolidine-2,4-dicarboxylic acid] | 9.66 µg/mL (≈ 50.5 µM) | significant cytotoxic effect | not influenced | – | – | – |
| Cn1nnc2c(C(N)=O)ncn2c1=O [temozolomide, Temozolomide] | – | – | – | 1050 µg/mL (≈ 5430 µM) | 96.6 µg/mL | 903 µg/mL |
| CC(=O)N[C@@H](CS)C(=O)O [N-acetylcysteine] | – | no effect | – | – | – | – |
